The text below walks through data of ChEMBL document CHEMBL1149015, “New taxanes from Taxus brevifolia, 2” (1986).

For the test, the system named is KB. The experiment in a line: Cytotoxicity against human KB cells. In kind it is functional.

≈ marks a conversion by molar mass, not a printed value.

Molecule `CC(=O)O[C@H]1C(=O)[C@]2(C)[C@H](O)C[C@H]3OC[C@@]3(OC(C)=O)[C@H]2[C@H](OC(=O)c2ccccc2)[C@]2(O)C[C@H](OC(=O)[C@H](O)[C@@H](NC(=O)c3ccccc3)c3ccccc3)C(C)=C1C2(C)C` showed an ED50 of 3 ×10⁻⁵ ug/ml.
`CC(=O)O[C@@]12CO[C@@H]1C[C@H](O)[C@@]1(C)C(=O)C(=O)C3=C(C)[C@@H](OC(=O)[C@H](O)[C@@H](NC(=O)c4ccccc4)c4ccccc4)C[C@@](O)([C@@H](OC(=O)c4ccccc4)[C@H]21)C3(C)C`: the EC50 (Homo sapiens, KB, read-out: ED50 (the source's name)) is 0.02 µg/mL (≈ 0.0247 µM).
The molecule `CC(=O)O[C@H]1C(=O)[C@@]2(C)[C@H]([C@H](OC(=O)c3ccccc3)[C@]3(O)C[C@H](OC(=O)[C@H](O)[C@@H](NC(=O)c4ccccc4)c4ccccc4)C(C)=C1C3(C)C)[C@]1(OC(C)=O)CO[C@@H]1C[C@@H]2O` [PACLITAXEL] showed an ED50 of 1 ×10⁻⁵ ug/ml.
